Source: patent US10183946B2, “Triazolo[4,5-D]pyrimidines” (Hoffmann—La Roche Inc., priority 2014, dated 2019)

Assays:
[1] = target: human CB2 receptors (Homo sapiens (Human), UniProt P34972); assay: cAMP assay, CHO cells expressing human CB2 receptors; format: cell-based; conditions: functional cAMP assay, read-out: CB2 hcAMP EC50
Method: (§1) CHO cells expressing human CB1 or CB2 receptors are seeded 17-24 hours prior to the experiment 50.000 cells per well in a black 96 well plate with flat clear bottom (Corning Costar #3904) in DMEM (Invitrogen No. 31331), 1×HT supplement, with 10% fetal calf serum and incubated at 5% CO2 and 37° C. in a humidified incubator. The growth medium was exchanged with Krebs Ringer Bicarbonate buffer with 1 mM IBMX and incubated at 30° C. for 30 min. Compounds were added to a final assay volume of 100 μl and incubated for 30 min at 30° C. Using the cAMP-Nano-TRF detection kit the assay (Roche Diagnostics) was stopped by the addition of 50 μl lysis reagent (Tris, NaCl, 1.5% Triton X100, 2.5% NP40, 10% NaN3) and 50 μl detection solutions (20 μM mAb Alexa700-cAMP 1:1, and 48 μM Ruthenium-2-AHA-cAMP) and shaken for 2 h at room temperature. The time-resolved energy transfer is measured by a TRF reader (Evotec Technologies GmbH), equipped with a ND:YAG laser as excitation source. The plate is measured twice with the excitation at 355 nm and at the emission with a delay of 100 ns and a gate of 100 ns, total exposure time 10 s at 730 (bandwidth 30 nm) or 645 nm (bandwidth 75 nm), respectively. The FRET signal is calculated as follows: FRET=T730-Alexa730-P(T645-B645) with P=Ru730-B730/Ru645-B645, where T730 is the test well measured at 730 nM, T645 is the test well measured at 645 nm, B730 and B645 are the buffer controls at 730 nm and 645 nm, respectively. cAMP content is determined from the function of a standard curve spanning from 10 μM to 0.13 nM cAMP.
(§2) EC50 values were determined using Activity Base analysis (ID Business Solution, Limited). The EC50 values for a wide range of cannabinoid agonists generated from this assay were in agreement with the values published in the scientific literature.

[2] = target: human CB1 receptors (Homo sapiens (Human), UniProt P21554); assay: cAMP assay, CHO cells expressing human CB1 receptors; format: cell-based; conditions: functional cAMP assay, CHO cells expressing human CB1; read-out: CB1 hcAMP EC50
Sequence of human CB1 receptors (P21554 whole entry): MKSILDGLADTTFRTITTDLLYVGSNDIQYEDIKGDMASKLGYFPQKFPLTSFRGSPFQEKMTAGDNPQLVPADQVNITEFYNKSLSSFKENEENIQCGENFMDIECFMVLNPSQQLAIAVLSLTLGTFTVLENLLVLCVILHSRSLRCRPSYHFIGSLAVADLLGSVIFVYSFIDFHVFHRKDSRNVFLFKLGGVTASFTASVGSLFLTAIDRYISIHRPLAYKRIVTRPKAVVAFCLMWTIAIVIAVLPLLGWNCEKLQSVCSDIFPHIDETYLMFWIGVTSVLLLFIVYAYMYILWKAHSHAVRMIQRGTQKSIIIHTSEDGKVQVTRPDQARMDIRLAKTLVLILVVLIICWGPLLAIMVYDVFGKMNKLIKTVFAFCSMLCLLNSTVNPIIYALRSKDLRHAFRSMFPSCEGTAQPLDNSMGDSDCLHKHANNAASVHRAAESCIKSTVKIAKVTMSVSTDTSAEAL
Method: as §1, §2

Sequence of human CB2 receptors (P34972 whole entry): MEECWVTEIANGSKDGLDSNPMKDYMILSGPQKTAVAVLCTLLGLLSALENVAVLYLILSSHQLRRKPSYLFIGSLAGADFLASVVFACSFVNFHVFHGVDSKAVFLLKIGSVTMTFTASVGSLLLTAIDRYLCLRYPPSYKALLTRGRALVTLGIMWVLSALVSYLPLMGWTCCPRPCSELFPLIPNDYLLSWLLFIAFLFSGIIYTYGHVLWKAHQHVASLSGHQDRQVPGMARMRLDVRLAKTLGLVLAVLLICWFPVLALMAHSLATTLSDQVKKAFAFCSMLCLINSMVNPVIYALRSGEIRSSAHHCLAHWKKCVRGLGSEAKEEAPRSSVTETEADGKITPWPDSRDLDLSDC

SMILES | EC50 [1] [nM] | EC50 [2] [µM]
CC(C)(C)c1nc(-c2ccc(F)nc2)c2nnn(Cc3ccccc3Cl)c2n1 [Example 6, 5-tert-butyl-3-[(2-chlorophenyl)methyl]-7-(6-fluoropyridin-3-yl)triazolo[4,5-d]pyrimidine] | 2.7 | > 10
Cn1nccc1-c1nc(C(C)(C)C)nc2c1nnn2Cc1ccccc1S(C)(=O)=O [Example 12, 5-tert-butyl-7-(2-methylpyrazol-3-yl)-3-[(2-methylsulfonylphenyl)methyl]triazolo[4,5-d]pyrimidine] | 3 | > 10
Cn1nccc1-c1nc(C(C)(C)C)nc2c1nnn2C1CCOC1 (stereo not drawn) [Example 18, 5-tert-butyl-7-(2-methylpyrazol-3-yl)-3-(oxolan-3-yl)triazolo[4,5-d]pyrimidine] | 86 | > 10
Cn1nccc1-c1nc(C(C)(C)C)nc2c1nnn2Cc1nnnn1C [Example 13, 5-tert-butyl-7-(2-methylpyrazol-3-yl)-3-[(1-methyltetrazol-5-yl)methyl]triazolo[4,5-d]pyrimidine] | 33.3 | > 10
CC(C)(C)c1nc(C2(O)C[S+]([O-])C2)c2nnn(Cc3ccccc3Cl)c2n1 (stereo not drawn) [Example 42, 3-[5-tert-Butyl-3-[(2-chlorophenyl)methyl]triazolo[4,5-d]pyrimidin-7-yl]-1-oxo-thietan-3-ol] | 110 | > 10
Cn1nccc1-c1nc(C(C)(C)C)nc2c1nnn2C[C@H](O)C(F)(F)F [Example 17, (2S)-3-[5-tert-butyl-7-(2-methylpyrazol-3-yl)triazolo[4,5-d]pyrimidin-3-yl]-1,1,1-trifluoropropan-2-ol] | 77.2 | > 10
CC(C)(C)c1nc(-c2ccc(Cl)cc2F)c2nnn(Cc3ccccc3Cl)c2n1 [Example 5, 5-tert-butyl-7-(4-chloro-2-fluorophenyl)-3-[(2-chlorophenyl)methyl]triazolo[4,5-d]pyrimidine] | 88.2 | > 10
Cc1ccc(-c2nc(C(C)(C)C)nc3c2nnn3Cc2ccccc2Cl)nc1 [Example 7, 5-tert-butyl-3-[(2-chlorophenyl)methyl]-7-(5-methylpyridin-2-yl)triazolo[4,5-d]pyrimidine] | 488 | > 10
CC(C)(C)c1nc(C2(CF)CC2)c2nnn(Cc3ccccc3Cl)c2n1 [Example 43, 5-tert-Butyl-3-[(2-chlorophenyl)methyl]-7-[1-(fluoromethyl)cyclopropyl]triazolo[4,5-d]pyrimidine] | 903 | > 10
Cn1nccc1-c1nc(C(C)(C)C)nc2c1nnn2Cc1ccccc1Cl [Example 9, 5-tert-butyl-3-[(2-chlorophenyl)methyl]-7-(2-methylpyrazol-3-yl)triazolo[4,5-d]pyrimidine] | 44.3 | > 10
CC(C)(C)c1nc(C2(O)CSC2)c2nnn(Cc3ccccc3Cl)c2n1 [Example 39, 3-[5-tert-Butyl-3-[(2-chlorophenyl)methyl]triazolo[4,5-d]pyrimidin-7-yl]thietan-3-ol] | 168 | > 10
CC(C)(C)c1nc(C2(O)CCCCCC2)c2nnn(Cc3ccccc3Cl)c2n1 [Example 36, 1-[5-tert-Butyl-3-[(2-chlorophenyl)methyl]triazolo[4,5-d]pyrimidin-7-yl]cycloheptanol] | 17.3 | > 10
CC(C)(C)c1nc(C2CCCC2)c2nnn(Cc3ccccc3Cl)c2n1 [Example 45a, 5-tert-Butyl-3-[(2-chlorophenyl)methyl]-7-cyclopentyl-triazolo[4,5-d]pyrimidine] | 94.4 | > 10
Cn1nccc1-c1nc(C(C)(C)C)nc2c1nnn2Cc1ncccc1Cl [Example 21, 5-tert-butyl-3-[(3-chloropyridin-2-yl)methyl]-7-(2-methylpyrazol-3-yl)triazolo[4,5-d]pyrimidine] | 39.5 | > 10
CC(C)(C)c1nc(-c2ccccc2)c2nnn(Cc3ccccc3Cl)c2n1 [Example 10, 5-tert-butyl-3-[(2-chlorophenyl)methyl]-7-phenyltriazolo[4,5-d]pyrimidine] | 80.2 | > 10
